The structures appear in SMILES notation.

The target of this experiment is human MMP-13 catalytic domain (hMMP-13CD) (Homo sapiens, UniProt P45452). Kind of experiment: Inhibition of MMP-13 catalytic domain (thiopeptolide substrate assay). Type of experiment: biochemical. The source says: The assays measure the amount by which a test compound reduces the hydrolysis of a thiopeptolide substrate catalyzed by a matrix metalloproteinase enzyme. Such assays are described in detail by Ye et al., in Biochemistry, 1992;31(45):11231-11235, which is incorporated herein by reference. One such assay is described below in Biological Method 1.
Some of the particular methods described below use the catalytic domain of the MMP-13 enzyme, namely matrix metalloproteinase-13 catalytic domain (“MMP-13CD”), rather than the corresponding full-length enzyme, MMP-13. It has been shown previously by Ye Qi-Zhuang, Hupe D., and Johnson L. (Current Medicinal Chemistry, 1996;3:407-418) that inhibitor activity against a catalytic domain of an MMP is predictive of the inhibitor activity against the respective full-length MMP enzyme.
Thiopeptolide substrates show virtually no decomposition or hydrolysis at or below neutral pH in the absence of a matrix metalloproteinase enzyme. A typical thiopeptolide substrate commonly utilized for assays is Ac-Pro-Leu-Gly-thioester-Leu-Leu-Gly-OEt. […] The change in absorbance at 405 nm is monitored on a Thermo Max microplate reader (molecular Devices, Menlo Park, Calif.) at room temperature (22° C.). […]
Some representative compounds of Formula I have been evaluated for their ability to inhibit MMP-13. […]

By IC50 is commonly meant the concentration at which inhibition is half-maximal. Read a high IC50 as weaker potency in that assay. `O=C(O)c1ccc(Cn2ccc3ccc(C#CCn4ccnn4)cc3c2=O)cc1` [4-[1-oxo-7-(3-[1,2,3]triazol-1-ylprop-1-ynyl)-1H-isoquinolin-2-ylmethyl]benzoic acid]: the IC50 is more than 50 µM.

Values taken from US6977261B2, “Azaisoquinoline derivatives as matrix metalloproteinase inhibitors” (Warner-Lambert Company LLC, priority 2002, dated 2005).
